Measurements: PubChem BioAssay (NCI)
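Values below derive from 48-hour exposures of cells grown in 96-well plates, with endpoints linearly interpolated between the two concentrations bracketing the appropriate inhibition level. The concentration for 50% growth inhibition is given as GI50. Definition used: TGI = concentration required for complete inhibition of growth.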

Experiments:
Test in all cases: growth of human tumour cells (NCI), 48 h
[1] = tested on: COLO 205 colon
[2] = tested on: HCC-2998 colon
[3] = tested on: HL-60(TB) leukemia
[4] = tested on: HOP-62 NSCLC
[5] = tested on: LOX IMVI melanoma
[6] = tested on: NCI-H522 lung
[7] = tested on: RPMI-8226 leukemia
[8] = tested on: SF-539 CNS
[9] = tested on: NCI/ADR-RES ovarian
[10] = tested on: T-47D breast

Compound | TGI [1] [µM] | TGI [2] [µM] | TGI [3] [µM] | TGI [4] [µM] | TGI [5] [µM] | TGI [6] [µM] | TGI [7] [µM] | TGI [8] [µM] | GI50 [1] [µM] | GI50 [3] [µM] | GI50 [4] [µM] | GI50 [5] [µM] | GI50 [6] [µM] | GI50 [9] [µM] | TGI [9] [µM] | GI50 [7] [µM] | GI50 [8] [µM] | GI50 [10] [µM] | TGI [10] [µM] | GI50 [2] [µM]
CCOC(=O)CC(=O)ON(C)C(C)=O | > 100 | > 100 | > 100 | > 100 | > 100 | > 100 | > 100 | > 100 |  |  |  |  |  |  |  |  |  |  |  | 
c1ccc(COc2cccc3ccc[n+](Cc4ccccc4)c23)cc1 | 23.9 | 41.4 | 5.75 | 50.8 |  | 8.02 | 14.2 | > 100 |  |  |  |  |  |  |  |  |  |  |  | 
C[C@@H]1CCC2[C@@H](C)[C@@H](OCC(CO[C@H]3OC4O[C@@]5(C)CC[C@H]6[C@H](C)CCC([C@H]3C)[C@@]46OO5)OC(=O)CCC(=O)O)OC3O[C@@]4(C)CC[C@@H]1[C@]32OO4 (some centres not stated) | 12.5 |  | 0.513 | 22.1 | > 100 | 15.4 | 16.5 | 28.8 | < 0.01 | 0.0111 | 0.99 | < 0.01 | 0.0628 | 0.245 | 6.23 | < 0.01 | 2.26 | < 0.01 | > 100 | 
COc1ncnc(NS(=O)(=O)c2ccc(N=C3C(=O)N(CN4CCN(c5c(F)cc6c(=O)c(C(=O)O)cn(C7CC7)c6c5OC)CC4C)c4ccc(Cl)cc43)cc2)c1OC (configuration not stated) | > 50 |  | > 50 | > 50 | 15.6 | > 50 | 28.1 | > 50 | 19.6 | 14 | 23.4 | 6.89 | > 50 | 8.76 | 42.1 | 8.33 | 16.8 |  |  | 
CCCCCCCCC/C=C1\CCC(CN2CCOCC2)C1=O (configuration not stated) | 11.2 | 18.8 | 4.38 | 26.4 | 2.02 | 6.64 | 1.08 | 3.74 |  |  |  |  |  |  |  |  |  |  |  | 
CCN1c2ccccc2C(C(SC)S(=O)(=O)c2ccc(C)cc2)c2c1[nH]c(=O)n(C)c2=O (configuration not stated) | > 100 | > 100 | > 100 | > 100 | > 100 | > 100 | > 100 | > 100 |  |  |  |  |  |  |  |  |  |  |  | 
CC(C)OP(=O)(OC(C)C)C(=NCCN=C(NNc1ccc([N+](=O)[O-])cc1)P(=O)(OC(C)C)OC(C)C)NNc1ccc([N+](=O)[O-])cc1 | 29.6 | > 100 | > 100 | > 100 | > 100 |  | > 100 | > 100 |  |  |  |  |  |  |  |  |  |  |  | 
CC(=O)[C@@]12O[C@@H]1CC1C3CCC4=CC(O)CCC4(C)C3CCC12C (some centres not stated) | > 100 |  | > 100 |  | > 100 | > 100 | 97.1 | > 100 | 57.4 | > 100 |  | 44.4 | > 100 | 20.4 | > 100 | 21.6 | 39 |  |  | 
COc1cc(C2c3cc4c(cc3OC(C)(O)C2C)OCO4)cc(OC)c1OC (configuration not stated) | > 100 | > 100 | 0.53 | > 100 | > 100 | 1.19 | 0.721 | 0.888 |  |  |  |  |  |  | > 100 |  |  |  |  | 
C[Si](C)(C)C1(Sc2ccccc2)SCCCS1 | > 100 | > 100 | 33.3 | 76.4 | > 100 | 68.6 | > 100 | 75.2 |  |  |  |  |  |  |  |  |  |  |  | 
OCC#Cc1ccccc1C#Cc1ccccc1 | 37.6 |  |  | 26.8 | 27.6 | 69 | 11.8 |  | 19.6 |  | 13.9 | 13.2 | 24.1 | 14.8 | 30.8 | 3 |  | 18.1 | 37.6 | 
COC(OC)C(C)CC(=O)N(C)C (configuration not stated) | > 100 | > 100 | > 100 | > 100 | > 100 |  | > 100 | > 100 |  |  |  |  |  |  |  |  |  |  |  | 
CN(C)c1nc(=Nc2ccc(N=c3nc(N(C)C)ss3)cc2)ss1 | 70.6 | > 100 | 45.3 | > 100 | > 67.9 | 25.8 | 40.7 | > 100 |  |  |  |  |  |  |  |  |  |  |  | 
CC(C)(C)OC(=O)N[C@H]1CC2(C=C(Cl)C(=O)C(Cl)=C2)OC1=O | 14.9 | 31.8 | 6.53 | > 73.7 | 34.5 | 7.18 | 19.8 | 45.1 |  |  |  |  |  |  |  |  |  |  | 40.5 | 
[Cl-].[La+3].[O-]/N=C(\c1ccccc1)c1ccccn1.[O-]/N=C(\c1ccccc1)c1ccccn1.[O-]/N=C(\c1ccccc1)c1ccccn1 | > 100 | > 100 | > 100 | > 93.9 | > 100 | > 100 | > 100 | > 85.7 | 46.8 | 33.5 | 28.4 | 22.9 | 44.5 |  |  | 62.1 | 29.7 |  |  | > 100
COc1ccc(S(=O)(=O)NNS(C)(=O)=O)cc1 | > 100 | > 100 | > 100 | > 100 | > 100 | > 100 | > 100 | > 100 |  |  |  |  |  |  |  |  |  |  |  | 
CCCCCCN(CCCCCC)C(=O)Cc1c2n(c3ccccc13)Cc1ccccc1-2 | > 100 | > 100 | 46.4 | > 100 | > 100 | > 100 | > 100 | > 100 |  |  |  |  |  |  |  |  |  |  |  | 
O=C(/C=C\c1ccc(Cl)c(Cl)c1)c1ccc(Cl)cc1Cl |  | 58.6 | 23.3 | > 100 | 18.2 | 32.6 | 41.4 | 37.7 |  | 3.46 | > 100 | 2.05 |  |  |  | 2.35 |  |  |  | 
OC(c1nc2ccccc2[nH]1)C(O)C(O)C(O)c1nc2ccccc2[nH]1 (configuration not stated) | > 100 |  | > 100 | > 100 | > 100 | > 100 | > 100 | > 100 |  |  |  |  |  |  | > 100 |  |  |  | > 100 | 
NS(=O)(=O)c1cc(Br)c(N=Nc2ccc(O)c3ncccc23)c(Br)c1 | > 100 |  | 29.4 | > 100 | > 100 | > 100 | > 100 | > 100 |  |  |  |  |  |  | 65.5 |  |  |  | 98.8 | 
